Measurements: US20260347364A1, “PYRAZOLO[4,3-F]QUINAZOLINE DERIVATIVES AS MODULATORS OF G12D MUTANT KRAS USEFUL FOR THE TREATMENT OF CANCER” (JAZZ PHARMACEUTICALS IRELAND LTD., priority 2023, published 2026)

How the values were obtained:
KRAS G12D = target: T1, KRAS G12D (Homo sapiens, UniProt P01116, G12D); assay: HTRF nucleotide exchange assay, KRAS G12D; assay type: biochemical; settings: HTRF nucleotide exchange assay (NEA), class symbols
T1 construct: aa1-188 KRAS WT, HRAS WT, NRAS WT, or KRAS containing the G12D
Method: (§1) HTRF Nucleotide Exchange Assay Method
(§2) The capacity of compounds to bind KRAS G12D, other KRAS mutants and wildtype RAS isoforms was quantified using a HTRF nucleotide exchange assay. Recombinant human RAS protein (2 nM; aa1-188 KRAS WT, HRAS WT, NRAS WT, or KRAS containing the G12D, G13D or Q61H amino acid substitutions, or 4 nM KRAS; aa1-188 containing the G12V, G12C, G12A or G12S amino acid substitution, an N-terminal 6× His-tag and leader sequence), and 2 nM Europium-labeled anti-6× His antibody were mixed in assay buffer (10 mM HEPES pH 7.3, 150 mM NaCl, 5 mM MgCl2, 0.05% BSA, 0.0025% NP-40 and 100 mM KF) with various concentrations of compound in a 384-well plate and a volume of 5 μL. After a 60-minute incubation at room temperature, 5 μl of 200 nM EDA-GTP-DY647P1 (diluted in assay buffer) was added to the plate. Following 30-minute incubation at room temperature, time-resolved fluorescence was measured on a PerkinElmer Envision plate reader. DMSO (0.3%) and unlabeled GDP (1 μM) or equivalent tool compound were used to generate the Max and Min assay signals, respectively. Data was analysed using a four-parameter logistic model to calculate IC50 values, with at least two independent replicates were performed for each compound. The results are presented as IC50s in Table 29 where “A” corresponds to an IC50 ≤10 nM, “B” to an IC50 >10 nM up to 100 nM, “C” is >100 nM up to 10 μM, “D” represents <49% inhibition at 10 μM and ND=not determined: […]

KRAS WT = target: T2, KRAS WT (Homo sapiens, UniProt P01116); assay: HTRF nucleotide exchange assay, KRAS WT; assay type: biochemical; settings: HTRF nucleotide exchange assay (NEA), class symbols
T2 construct: aa1-188 KRAS WT
Method: as §1, §2

T2 sequence (P01116 1-188 isoform P01116-2): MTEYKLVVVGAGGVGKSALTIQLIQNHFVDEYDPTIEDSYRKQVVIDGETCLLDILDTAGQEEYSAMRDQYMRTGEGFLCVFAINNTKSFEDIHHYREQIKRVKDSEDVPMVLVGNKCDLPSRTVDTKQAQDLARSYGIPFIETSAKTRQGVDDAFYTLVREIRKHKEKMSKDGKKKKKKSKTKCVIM
T1 sequence (P01116 1-188 isoform P01116-2 G12D): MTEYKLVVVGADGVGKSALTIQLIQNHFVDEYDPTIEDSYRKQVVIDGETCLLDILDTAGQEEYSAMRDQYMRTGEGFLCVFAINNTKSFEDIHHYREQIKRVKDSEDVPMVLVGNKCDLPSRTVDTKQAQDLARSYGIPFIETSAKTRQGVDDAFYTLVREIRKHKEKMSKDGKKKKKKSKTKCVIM

Row | IC50 (KRAS G12D) [nM] | IC50 (KRAS WT) [nM] | Structure (SMILES)
1 | ≤ 10 | 100 to 10000 | CCc1c(F)ccc2cc(O)cc(-c3cc4nc(OC[C@@]56CCCN5C[C@H](F)C6)nc(N5CC6CCC(C5)N6CC(C)O)c4c4cn(C)nc34)c12 (stereo partly drawn) [Example 91, 5-ethyl-6-fluoro-4-[7-[[(2R,8S)-2-fluoro-1,2,3,5,6,7-hexahydropyrrolizin-8-yl]methoxy]-9-[3-(2-hydroxypropyl)-3,8-diazabicyclo[3.2.1]octan-8-yl]-2-methyl-pyrazolo[4,3-f]quinazolin-4-yl]naphthalen-2-ol]
2 | ≤ 10 | ≤ 10 | CCc1c(F)ccc2cc(O)cc(-c3c(F)c4nc(OCC5(CN6CCC(C(F)(F)F)CC6)CC5)nc(N5CCOCC(C)(O)C5)c4c4cn(C)nc34)c12 (stereo not shown) [Example 218, 4-[4-(8-ethyl-7-fluoro-3-hydroxy-1-naphthyl)-5-fluoro-2-methyl-7-[[1-[[4-(trifluoromethyl)-1-piperidyl]methyl]cyclopropyl]methoxy]pyrazolo[4,3-f]quinazolin-9-yl]-6-methyl-1,4-oxazepan-6-ol]
3 | ≤ 10 | ≤ 10 | CCc1c(F)ccc2cc(O)cc(-c3cc4nc(OCC56CCCN5CCC6)nc(N5CCOCC(C)(O)C5)c4c4cn(C)nc34)c12 (stereo not shown) [Example 26, 4-[4-(8-ethyl-7-fluoro-3-hydroxy-1-naphthyl)-7-(1,2,3,5,6,7-hexahydropyrrolizin-8-ylmethoxy)-2-methyl-pyrazolo[4,3-f]quinazolin-9-yl]-6-methyl-1,4-oxazepan-6-ol]
4 | ≤ 10 | ≤ 10 | CCNC(=O)c1cc2n(n1)CCCN(c1nc(OC[C@@]34CCCN3C[C@H](F)C4)nc3c(C)c(-c4cc(O)cc5ccc(F)c(CC)c45)c4nn(C)cc4c13)C2 [Example 181, N-ethyl-5-[4-(8-ethyl-7-fluoro-3-hydroxy-1-naphthyl)-7-[[(2R,8S)-2-fluoro-1,2,3,5,6,7-hexahydropyrrolizin-8-yl]methoxy]-2,5-dimethyl-pyrazolo[4,3-f]quinazolin-9-yl]-4,6,7,8-tetrahydropyrazolo[1,5-a][1,4]diazepine-2-carboxamide]
5 | ≤ 10 | ≤ 10 | CCc1c(F)ccc2cc(O)cc(-c3c(C)c4nc(OC[C@@]56CCCN5C[C@H](F)C6)nc(N5CC6CCC(C5)N6)c4c4cn(C)nc34)c12 [Example 96, tert-butyl 3-[4-bromo-7-[[(2R,8S)-2-fluoro-1,2,3,5,6,7-hexahydropyrrolizin-8-yl]methoxy]-2,5-dimethyl-pyrazolo[4,3-f]quinazolin-9-yl]-3,8-diazabicyclo[3.2.1]octane-8-carboxylate]
6 | ≤ 10 |  | CCc1c(F)ccc2cc(O)cc(-c3c(F)c4nc(OCC5(CN6CC(O)C(F)(F)C6)CC5)nc(N5CCOCC(C)(O)C5)c4c4cn(C)nc34)c12 (stereo not shown) [Example 237, 4-[7-[[1-[(3,3-difluoro-4-hydroxy-pyrrolidin-1-yl)methyl]cyclopropyl]methoxy]-4-(8-ethyl-7-fluoro-3-hydroxy-1-naphthyl)-5-fluoro-2-methyl-pyrazolo[4,3-f]quinazolin-9-yl]-6-methyl-1,4-oxazepan-6-ol]
7 | ≤ 10 |  | CCc1c(F)ccc2cc(O)cc(-c3c(C)c4nc(OCC5(CF)COC5)nc(N5CC6CCC(C5)N6)c4c4cn(C)nc34)c12 [Example 247, 4-[9-(3,8-diazabicyclo[3.2.1]octan-3-yl)-7-[[3-(fluoromethyl)oxetan-3-yl]methoxy]-2,5-dimethyl-pyrazolo[4,3-f]quinazolin-4-yl]-5-ethyl-6-fluoro-naphthalen-2-ol]
8 | ≤ 10 |  | CCc1c(F)ccc2cc(O)cc(-c3c(F)c4nc(OC[C@@H]5CCN5C)nc(N5CCC[C@@](C)(O)C5)c4c4cn(C)nc34)c12 [Example 239, (3R)-1-[4-(8-ethyl-7-fluoro-3-hydroxy-1-naphthyl)-5-fluoro-2-methyl-7-[[(2S)-1-methylazetidin-2-yl]methoxy]pyrazolo[4,3-f]quinazolin-9-yl]-3-methyl-piperidin-3-ol]
